Source: article PMC9161374 (Science Translational Medicine, 2022)
Where “and” joins values, the source holds several entries; their conditions need not be identical. Equal values may be shown once.

Experiments:
[1] = test system: SARS-CoV-2 replicon system (pBAC-SARS-CoV-2-Replicon-Luc); assay: microbe, parasite or virus in culture; format: cell-based; conditions: Severe acute respiratory syndrome coronavirus 2, HEK-293T, 60 h
SARS-CoV-2 (B.1) = assay: Anti-SARS-CoV-2 activity in Vero E6 cells (viral yield by qRT-PCR); format: cell-based
[2] = test system: SARS-CoV-2 (Beta, B.1.351); assay: microbe, parasite or virus in culture; format: cell-based; conditions: for % Inhibition: beta
[3] = test system: SARS-CoV-2 (Delta, B.1.617.2); assay: microbe, parasite or virus in culture; format: cell-based; conditions: for % Inhibition: delta
[4] = test system: SARS-CoV-2 (B.1) in Huh7 cells; assay: Anti-SARS-CoV-2 activity in Huh7 cells (viral yield by qRT-PCR); format: cell-based; conditions: B.1, MOI 0.05, 48 h
[5] = CCK-8 cell viability assay; format: cell-based, African green monkey; conditions: African green monkey; Vero E6 cells, 48 h, CCK8
How it was run: (§1)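 Vero E6 cells, 20,000/well, exposed to compound at 0–200 μM (0, 0.01, 0.1, 1, 5, 10, 50, 75, 100, 200 μM) for 48 h; viability read by CCK-8 and expressed as percentage versus drug concentration, mean ± SD.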

Vero E6 cells = assay: CCK-8 cell viability assay; format: cell-based, African green monkey; conditions: individual replicate values, Fig.S4
How it was run: as §1

N#C[C@@]1(c2ccc3c(N)ncnn23)O[C@H](COC(=O)c2ccccc2)[C@@H](O)[C@H]1O [ATV013]
EC50 ([1]; read-out: EC50 (Confidence 95%), replicon): 497 nM | EC90 ([1]; read-out: EC90 (Confidence 95%), replicon): 1140 nM | % Inhibition (SARS-CoV-2 (B.1); 0.1 μM, replicates, sheet Fig.S3): 0% | % Inhibition (SARS-CoV-2 (B.1); 0.5 μM, replicates, sheet Fig.S3): 0% | % Inhibition (SARS-CoV-2 (B.1); 1 μM, replicates, sheet Fig.S3): 54.9033% | % Inhibition (SARS-CoV-2 (B.1); 2 μM, replicates, sheet Fig.S3): 83.4601% | % Inhibition (SARS-CoV-2 (B.1); 5 μM, replicates, sheet Fig.S3): 91.8254% | % Inhibition (SARS-CoV-2 (B.1); 10 μM, replicates, sheet Fig.S3): 91.2053% | % Inhibition (SARS-CoV-2 (B.1); B.1, 0.01 uM, Vero E6, replicates): 0% | % Inhibition (SARS-CoV-2 (B.1); B.1, 0.1 uM, Vero E6, replicates): 0% | % Inhibition (SARS-CoV-2 (B.1); B.1, 0.25 uM, Vero E6, replicates): 0% | % Inhibition (SARS-CoV-2 (B.1); B.1, 0.5 uM, Vero E6, replicates): 0% | % Inhibition (SARS-CoV-2 (B.1); B.1, 1 uM, Vero E6, replicates): 0% | % Inhibition (SARS-CoV-2 (B.1); B.1, 5 uM, Vero E6, replicates, 5 µM): 99.7536% | % Inhibition (SARS-CoV-2 (B.1); B.1, 10 uM, Vero E6, replicates, 10 µM): 99.9918% | % Inhibition (SARS-CoV-2 (B.1); B.1, 50 uM, Vero E6, replicates, 50 µM): 99.9922% | inhibition at 0.1 µM (SARS-CoV-2 (B.1); Severe acute respiratory syndrome coronavirus 2, Vero C1008, 0.1 μM, replicates, sheet Fig.S3): 0% | inhibition at 0.5 µM (SARS-CoV-2 (B.1); Severe acute respiratory syndrome coronavirus 2, Vero C1008, 0.5 μM, replicates, sheet Fig.S3): 0% | inhibition at 1 µM (SARS-CoV-2 (B.1); Severe acute respiratory syndrome coronavirus 2, Vero C1008, 1 μM, replicates, sheet Fig.S3): 62% | inhibition at 2 µM (SARS-CoV-2 (B.1); Severe acute respiratory syndrome coronavirus 2, Vero C1008, 2 μM, replicates, sheet Fig.S3): 83.8% | inhibition at 5 µM (SARS-CoV-2 (B.1); Severe acute respiratory syndrome coronavirus 2, Vero C1008, 5 μM, replicates, sheet Fig.S3): 93.6% | inhibition at 10 µM (SARS-CoV-2 (B.1); Severe acute respiratory syndrome coronavirus 2, Vero C1008, 10 μM, replicates, sheet Fig.S3): 93.5% | inhibition at 0.01 µM (SARS-CoV-2 (B.1); Severe acute respiratory syndrome coronavirus 2, Vero C1008, B.1, 0.01 uM, Vero E6, replicates): 0% | inhibition at 0.1 µM (SARS-CoV-2 (B.1); Severe acute respiratory syndrome coronavirus 2, Vero C1008, B.1, 0.1 uM, Vero E6, replicates): 0% | inhibition at 0.25 µM (SARS-CoV-2 (B.1); Severe acute respiratory syndrome coronavirus 2, Vero C1008, B.1, 0.25 uM, Vero E6, replicates): 0% | inhibition at 0.5 µM (SARS-CoV-2 (B.1); Severe acute respiratory syndrome coronavirus 2, Vero C1008, B.1, 0.5 uM, Vero E6, replicates): 0% | inhibition at 1 µM (SARS-CoV-2 (B.1); Severe acute respiratory syndrome coronavirus 2, Vero C1008, B.1, 1 uM, Vero E6, replicates): 0% | inhibition at 5 µM (SARS-CoV-2 (B.1); Severe acute respiratory syndrome coronavirus 2, Vero C1008, B.1, 5 uM, Vero E6, replicates): 99.5% | inhibition at 10 µM (SARS-CoV-2 (B.1); Severe acute respiratory syndrome coronavirus 2, Vero C1008, B.1, 10 uM, Vero E6, replicates): 100% | inhibition at 50 µM (SARS-CoV-2 (B.1); Severe acute respiratory syndrome coronavirus 2, Vero C1008, B.1, 50 uM, Vero E6, replicates): 100% | EC90 (SARS-CoV-2 (B.1); Severe acute respiratory syndrome coronavirus 2, Vero C1008, read-out: EC90 (Confidence 95%)): 2870 nM | EC50 (SARS-CoV-2 (B.1); Severe acute respiratory syndrome coronavirus 2, Vero C1008, MOI 0.05, 48 h): 2260 nM | EC50 ([2]; Severe acute respiratory syndrome coronavirus 2, Vero C1008, 48 h, read-out: EC50 in Vero E6 cells, SARS-CoV-2 (Beta, B.1.351)): 2430 nM | inhibition at 0.01 µM ([2]; Severe acute respiratory syndrome coronavirus 2, Vero C1008, beta, 0.01 uM, Vero E6, replicates): 0% | inhibition at 0.1 µM ([2]; Severe acute respiratory syndrome coronavirus 2, Vero C1008, beta, 0.1 uM, Vero E6, replicates): 0% | inhibition at 0.25 µM ([2]; Severe acute respiratory syndrome coronavirus 2, Vero C1008, beta, 0.25 uM, Vero E6, replicates): 0% | inhibition at 0.5 µM ([2]; Severe acute respiratory syndrome coronavirus 2, Vero C1008, beta, 0.5 uM, Vero E6, replicates): 0% | inhibition at 1 µM ([2]; Severe acute respiratory syndrome coronavirus 2, Vero C1008, beta, 1 uM, Vero E6, replicates): 0% | inhibition at 2 µM ([2]; Severe acute respiratory syndrome coronavirus 2, Vero C1008, beta, 2 uM, Vero E6, replicates): 23.7% | inhibition at 5 µM ([2]; Severe acute respiratory syndrome coronavirus 2, Vero C1008, beta, 5 uM, Vero E6, replicates): 99.7% | inhibition at 10 µM ([2]; Severe acute respiratory syndrome coronavirus 2, Vero C1008, beta, 10 uM, Vero E6, replicates): 99.9% | inhibition at 50 µM ([2]; Severe acute respiratory syndrome coronavirus 2, Vero C1008, beta, 50 uM, Vero E6, replicates): 99.9% | EC90 ([2]; Severe acute respiratory syndrome coronavirus 2, Vero C1008, read-out: EC90 (Confidence 95%), Vero-E6, Beta B.1.351): 3.09 µM | % Inhibition ([2]; 0.01 uM, Vero E6, replicates): 0% | % Inhibition ([2]; 0.1 uM, Vero E6, replicates): 0% | % Inhibition ([2]; 0.25 uM, Vero E6, replicates): 0% | % Inhibition ([2]; 0.5 uM, Vero E6, replicates): 0% | % Inhibition ([2]; 1 uM, Vero E6, replicates): 0% | % Inhibition ([2]; 2 uM, Vero E6, replicates): 12.3832% | % Inhibition ([2]; 5 uM, Vero E6, replicates): 99.5222% | % Inhibition ([2]; 10 uM, Vero E6, replicates): 99.9634% | % Inhibition ([2]; 50 uM, Vero E6, replicates): 99.9455% | EC50 ([3]; Severe acute respiratory syndrome coronavirus 2, Vero C1008, 48 h, read-out: EC50 in Vero E6 cells, SARS-CoV-2 (Delta, B.1.617.2)): 965 nM | inhibition at 0.01 µM ([3]; Severe acute respiratory syndrome coronavirus 2, Vero C1008, delta, 0.01 uM, Vero E6, replicates): 0% | inhibition at 0.1 µM ([3]; Severe acute respiratory syndrome coronavirus 2, Vero C1008, delta, 0.1 uM, Vero E6, replicates): 0% | inhibition at 0.25 µM ([3]; Severe acute respiratory syndrome coronavirus 2, Vero C1008, delta, 0.25 uM, Vero E6, replicates): 0% | inhibition at 1 µM ([3]; Severe acute respiratory syndrome coronavirus 2, Vero C1008, delta, 1 uM, Vero E6, replicates): 50.4% | inhibition at 2 µM ([3]; Severe acute respiratory syndrome coronavirus 2, Vero C1008, delta, 2 uM, Vero E6, replicates): 93.4% | inhibition at 5 µM ([3]; Severe acute respiratory syndrome coronavirus 2, Vero C1008, delta, 5 uM, Vero E6, replicates): 96.1% | inhibition at 10 µM ([3]; Severe acute respiratory syndrome coronavirus 2, Vero C1008, delta, 10 uM, Vero E6, replicates): 99.7% | inhibition at 50 µM ([3]; Severe acute respiratory syndrome coronavirus 2, Vero C1008, delta, 50 uM, Vero E6, replicates): 100% | EC90 ([3]; Severe acute respiratory syndrome coronavirus 2, Vero C1008, read-out: EC90 (Confidence 95%), Vero-E6, Delta B.1.617.2): 1410 nM | % Inhibition ([3]; 0.01 uM, Vero E6, replicates): 0% | % Inhibition ([3]; 0.1 uM, Vero E6, replicates): 0% | % Inhibition ([3]; 0.25 uM, Vero E6, replicates): 0% | % Inhibition ([3]; 0.5 uM, Vero E6, replicates): 0.1843% and 0% | % Inhibition ([3]; 1 uM, Vero E6, replicates): 60.4565% | % Inhibition ([3]; 2 uM, Vero E6, replicates): 90.993% | % Inhibition ([3]; 5 uM, Vero E6, replicates): 93.9334% | % Inhibition ([3]; 10 uM, Vero E6, replicates): 98.4346% | % Inhibition ([3]; 50 uM, Vero E6, replicates): 99.9058% | EC50 ([4]; Severe acute respiratory syndrome coronavirus 2, Huh-7, read-out: EC50 (Confidence 95%) in Huh7 cells): 964 nM | EC90 ([4]; Severe acute respiratory syndrome coronavirus 2, Huh-7, read-out: EC90 (Confidence 95%) in Huh7 cells): 1320 nM | CC50 at 48 h [5]: > 50 µM | cell viability (% of control) (Vero E6 cells; 1 μM compound, 1 µM): 66.6435 % of control and 71.881 % of control and 81.6609 % of control | cell viability (% of control) (Vero E6 cells; 2 μM compound, 2 µM): 62.1939 % of control and 100.479 % of control and 98.8104 % of control | cell viability (% of control) (Vero E6 cells; 5 μM compound, 5 µM): 79.1116 % of control and 101.73 % of control and 106.643 % of control | cell viability (% of control) (Vero E6 cells; 10 μM compound, 10 µM): 79.4361 % of control and 86.4349 % of control and 92.6458 % of control | cell viability (% of control) (Vero E6 cells; 20 μM compound, 20 µM): 76.9332 % of control and 94.4535 % of control and 115.728 % of control | cell viability (% of control) (Vero E6 cells; 50 μM compound, 50 µM): 73.9991 % of control and 102.436 % of control and 88.29 % of control
